{
  "source": "patent EP2305274A1",
  "about": "“Use of WNT stimulators for treating demyelinating diseases” (Centre National de la Recherche Scientifique (CNRS), priority 2009, dated 2011)",
  "key": {"GSK3": {"system": "GSK3", "conditions": "cited from earlier work"}, "MSC80 cells": {"system": "MSC80 cells", "assay": "Western blot of MPZ, PMP22 and β-catenin proteins in MSC80 cells", "format": "cell-based, mouse", "conditions": "SB216763 10 µM, after 3h, lasted until 24h", "excerpt": "Western blot analysis confirmed the stimulation of MPZ and PMP22 expression. […] This difference may be due to specific mRNA and protein half-life.\nThe increase in PMP22 protein expression was timedependent."}, "[1]": {"conditions": "GSK3 inhibitors, see Meijer L et al, Trends in Pharmacological Sciences 2004"}},
  "note": "Like-named read-outs stand apart in the source and are kept apart here.",
  "data": [
    {"compound": "CC(=O)O/N=C1/C(=C2/C(=O)Nc3cc(Br)ccc32)Nc2ccccc21", "note": "[6-bromoindirubin-3'acetoxime, (2'Z,3'E)-6-Bromoindirubin-3'-acetoxime]", "values": [
      {"measurement": "IC50", "setting": "GSK3; [1]", "value": "< 100", "unit": "nM"}
    ]},
    {"compound": "OCCCNc1cc(-c2ccnc(Nc3cccc(Cl)c3)n2)ccn1", "note": "[CGP60474, 3-{4-[2-(3-chlorophenylamino)-pyrimidin-4-yl]-pyridin-2-yl-amino}-propanol]", "values": [
      {"measurement": "IC50", "setting": "GSK3; [1]", "value": "< 100", "unit": "nM"}
    ]},
    {"compound": "Cc1c[nH]c(-c2cnc(NCCNc3ccc(C#N)cn3)nc2-c2ccc(Cl)cc2Cl)n1", "note": "[CHIR99021]", "values": [
      {"measurement": "IC50", "setting": "GSK3; [1]", "value": "[…]"}
    ]},
    {"compound": "[H]/N=C(/N)SCCCn1cc(C2=C(c3cn(C)c4ccccc34)C(=O)NC2=O)c2ccccc21", "note": "[Ro318220]", "values": [
      {"measurement": "IC50", "setting": "GSK3; [1]", "value": "< 100", "unit": "nM"}
    ]},
    {"compound": "Cn1cc(C2=C(c3ccc(Cl)cc3Cl)C(=O)NC2=O)c2ccccc21", "note": "[SB216763]", "values": [
      {"measurement": "expression of MPZ protein (Western blot)", "setting": "MSC80 cells", "value": "enhanced"},
      {"measurement": "expression of PMP22 protein (Western blot)", "setting": "MSC80 cells", "value": "enhanced"},
      {"measurement": "expression of β-catenin protein (Western blot)", "setting": "MSC80 cells", "value": "enhanced"},
      {"measurement": "IC50", "setting": "GSK3; [1]", "value": "[…]"}
    ]},
    {"compound": "Nc1cccc(-c2cc3c(Oc4cccc(O)c4)ncnc3[nH]2)c1", "note": "[TWS119]", "values": [
      {"measurement": "IC50", "setting": "GSK3; [1]", "value": "< 100", "unit": "nM"}
    ]},
    {"compound": "CHIR98014", "values": [
      {"measurement": "IC50", "setting": "GSK3", "value": "< 100", "unit": "nM"}
    ]}
  ]
}
